The source of these data is US8524755B2 (priority 2009, dated 2013).

Test [1] concerns Cl^− channel (GABA-gated). The experiment in a line: Binding Cl− channel (GABA-gated) (aa). The arrangement: species or system rat. On the procedure: (§1) Radioligand binding assay methods utilized to measure the activity of compounds of the invention will be familiar to those skilled in the art. In each assay case, the assay components such as, for example, the cell-type, ligand, reference compound and the like, will be familiar to practitioners of such an assay.
(§2) Analysis and Expression of Results: Compounds of the invention were tested in the biochemical assays and percent inhibition of specific binding was determined. The specific ligand binding to the receptors is defined as the difference between the total binding and the nonspecific binding determined in the presence of an excess of unlabelled ligand. The results are expressed as a percent inhibition of control specific binding (100−((measured specific binding/control specific binding)×100)) obtained in the presence of test compounds.

Test [2] has as its target T1, human GABAA α1β3γ2 receptor (Homo sapiens, UniProt P14867+P18507+P28472).
T1 construct: expressed in transfected cells; host or cells: Xenopus laevis oocytes, cDNA injection
Nature of the test: GABAA Functional Assay, α1β3γ2, Xenopus oocytes. The test is classed as cell-based.

In the next test the target is T2, guanylyl cyclase (basal) (Bos taurus, UniProt P16068+P19687).
T2 construct: bovine lung; from tissue; host or cells: bovine lung
T2 sequence (P19687 1-691): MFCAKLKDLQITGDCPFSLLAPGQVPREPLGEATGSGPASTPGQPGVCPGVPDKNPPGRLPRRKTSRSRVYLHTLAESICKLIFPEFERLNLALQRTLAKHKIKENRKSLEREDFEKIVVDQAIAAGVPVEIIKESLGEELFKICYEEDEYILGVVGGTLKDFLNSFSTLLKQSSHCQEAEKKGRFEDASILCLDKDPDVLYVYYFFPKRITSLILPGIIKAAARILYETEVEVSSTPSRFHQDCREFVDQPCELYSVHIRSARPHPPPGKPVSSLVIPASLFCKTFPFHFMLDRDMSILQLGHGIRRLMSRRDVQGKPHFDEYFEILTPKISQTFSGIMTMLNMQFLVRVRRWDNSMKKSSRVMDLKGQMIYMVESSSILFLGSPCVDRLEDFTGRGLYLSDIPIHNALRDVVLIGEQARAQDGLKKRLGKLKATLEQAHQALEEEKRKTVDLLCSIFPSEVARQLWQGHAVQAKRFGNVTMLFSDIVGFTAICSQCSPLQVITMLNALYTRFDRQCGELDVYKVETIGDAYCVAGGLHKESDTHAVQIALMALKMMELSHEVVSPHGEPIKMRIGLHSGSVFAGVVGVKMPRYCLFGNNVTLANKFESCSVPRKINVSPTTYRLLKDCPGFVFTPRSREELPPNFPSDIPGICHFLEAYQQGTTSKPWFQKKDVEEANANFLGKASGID
T2 sequence (P16068 1-619): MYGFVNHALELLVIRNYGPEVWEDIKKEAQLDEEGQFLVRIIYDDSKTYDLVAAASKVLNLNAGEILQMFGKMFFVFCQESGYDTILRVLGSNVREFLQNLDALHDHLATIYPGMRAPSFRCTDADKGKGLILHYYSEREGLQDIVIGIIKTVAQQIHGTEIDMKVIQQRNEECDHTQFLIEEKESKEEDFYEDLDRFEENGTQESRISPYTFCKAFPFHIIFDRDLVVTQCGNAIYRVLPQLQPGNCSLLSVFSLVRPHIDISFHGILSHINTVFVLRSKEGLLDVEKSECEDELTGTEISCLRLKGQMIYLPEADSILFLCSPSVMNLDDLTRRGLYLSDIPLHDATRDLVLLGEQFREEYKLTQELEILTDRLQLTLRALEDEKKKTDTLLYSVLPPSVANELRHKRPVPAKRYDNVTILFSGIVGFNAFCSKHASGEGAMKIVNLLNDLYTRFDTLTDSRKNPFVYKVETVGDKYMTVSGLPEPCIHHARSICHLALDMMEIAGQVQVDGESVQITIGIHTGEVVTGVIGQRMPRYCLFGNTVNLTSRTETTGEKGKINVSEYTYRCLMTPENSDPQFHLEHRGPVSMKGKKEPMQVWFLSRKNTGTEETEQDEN
The experiment in a line: Enzyme assay guanylyl cyclase (basal). The test is classed as biochemical, bovine. The source says: The enzyme assays provided below will be familiar to those skilled in the art.
Analysis and Expression of Results: The results are expressed as a percent of control specific activity ((measured specific activity/control specific activity)×100) obtained in the presence of the test compounds.

A further test deals with opioid (ns). The experiment in a line: Binding opioid (ns) (aa). The arrangement: species or system rat. On the procedure:
as §1, §2

T1 sequence (P14867 28-456): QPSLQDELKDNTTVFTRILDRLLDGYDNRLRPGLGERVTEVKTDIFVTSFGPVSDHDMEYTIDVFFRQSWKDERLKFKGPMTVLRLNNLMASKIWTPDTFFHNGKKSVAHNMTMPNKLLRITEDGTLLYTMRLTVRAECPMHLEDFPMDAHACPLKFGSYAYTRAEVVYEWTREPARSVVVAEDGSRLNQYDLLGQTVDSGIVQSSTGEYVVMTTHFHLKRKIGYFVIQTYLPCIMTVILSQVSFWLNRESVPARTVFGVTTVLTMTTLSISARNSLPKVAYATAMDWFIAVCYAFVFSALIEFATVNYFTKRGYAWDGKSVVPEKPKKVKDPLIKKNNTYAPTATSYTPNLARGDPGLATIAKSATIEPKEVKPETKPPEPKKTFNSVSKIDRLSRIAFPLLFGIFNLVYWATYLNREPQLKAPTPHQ
T1 sequence (P28472 26-473): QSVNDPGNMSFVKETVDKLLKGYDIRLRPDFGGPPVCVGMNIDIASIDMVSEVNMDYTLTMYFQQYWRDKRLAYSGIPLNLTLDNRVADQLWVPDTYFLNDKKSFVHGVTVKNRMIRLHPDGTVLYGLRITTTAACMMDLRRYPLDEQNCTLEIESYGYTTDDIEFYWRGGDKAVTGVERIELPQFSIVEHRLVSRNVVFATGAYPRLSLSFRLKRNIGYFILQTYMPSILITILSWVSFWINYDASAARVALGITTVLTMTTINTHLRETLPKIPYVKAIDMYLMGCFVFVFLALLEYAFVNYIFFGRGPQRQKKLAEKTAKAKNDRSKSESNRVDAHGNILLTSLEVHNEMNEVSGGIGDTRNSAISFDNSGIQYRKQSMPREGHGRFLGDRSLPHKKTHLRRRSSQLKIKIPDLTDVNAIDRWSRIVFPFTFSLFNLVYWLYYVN
T1 sequence (P18507 40-475): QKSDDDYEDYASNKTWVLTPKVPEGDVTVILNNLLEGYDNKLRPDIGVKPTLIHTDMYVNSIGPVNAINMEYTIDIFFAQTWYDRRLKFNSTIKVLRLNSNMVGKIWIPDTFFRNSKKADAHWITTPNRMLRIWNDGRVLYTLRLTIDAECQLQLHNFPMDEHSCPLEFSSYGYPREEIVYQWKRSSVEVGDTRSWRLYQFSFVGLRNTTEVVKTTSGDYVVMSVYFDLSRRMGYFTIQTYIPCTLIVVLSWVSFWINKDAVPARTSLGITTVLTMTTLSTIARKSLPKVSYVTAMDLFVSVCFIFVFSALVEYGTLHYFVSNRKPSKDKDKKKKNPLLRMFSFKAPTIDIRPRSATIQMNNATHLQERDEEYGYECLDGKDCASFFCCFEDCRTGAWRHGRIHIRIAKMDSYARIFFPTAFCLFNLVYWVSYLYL

On to `CNC(=O)c1ccc(N2C(=O)N(c3ccc(C#N)c(C(F)(F)F)c3)C(=O)C2(C)C)cc1F` [(MIV), 4-(3-(4-cyano-3-(trifluoromethyl)phenyl)-5,5-dimethyl-2,4-dioxoimidazolidin-1-yl)-2-fluoro-N-methylbenzamide], for which the “% Inhibition of Control Specific Binding @ 10 μM” value (shortened to “% Inhibition”) is 36% in test [1] and −10% in the test on opioid (ns). Besides, in test [2] (single exposure 30 sec), the “agonist activity at α1β3γ2 GABAA receptor (inward currents)” value is reported as “did not evoke any detectable inward currents”. Further, the “% Stimulation Relative to Control @ 10 μM” value at guanylyl cyclase (basal) amounted to 2%.
Consider `CC1(C)C(=O)N(c2ccc(C#N)c(C(F)(F)F)c2)C(=O)N1c1ccc(C(N)=O)c(F)c1` [(MIII), 4-(3-(4-cyano-3-(trifluoromethyl)phenyl)-5,5-dimethyl-2,4-dioxoimidazolidin-1-yl)-2-fluorobenzamide], for which the “% Inhibition” value in test [1] is on record as 38%; in the test with opioid (ns) it was −15%. Further, at guanylyl cyclase (basal), the “% Stimulation Relative to Control @ 10 μM” value is on record as −1%.
Broadly, the IC50 is the concentration needed to halve the response being measured. For the compound `CC1(C)C(=O)N(c2ccc(C#N)c(C(F)(F)F)c2)C(=S)N1c1ccc(C(=O)O)c(F)c1` [(MI), 4-(3-(4-cyano-3-(trifluoromethyl)phenyl)-5,5-dimethyl-4-oxo-2-thioxoimidazolidin-1-yl)-2-fluorobenzoic acid], the “% Inhibition” value was 47% in test [1] and −6% in the test with opioid (ns). The IC50 in test [2] (antagonist protocol, Xenopus oocytes, read-out: α1β3γ2 receptor derived IC50) is 68.3 ± 6 µM. Further, on guanylyl cyclase (basal), the “% Stimulation Relative to Control @ 10 μM” value worked out at 0%.
As for `CC1(C)C(=O)N(c2ccc(C#N)c(C(F)(F)F)c2)C(=S)N1c1ccc(C(N)=O)c(F)c1` [(MII), 4-(3-(4-Cyano-3-(trifluoromethyl)phenyl)-5,5-dimethyl-4-oxo-2-thioxoimidazolidin-1-yl)-2-fluorobenzamide], the “% Inhibition” value is 81% in test [1] and −14% with opioid (ns). For the same compound, the “% Stimulation Relative to Control @ 10 μM” value on guanylyl cyclase (basal) is listed as 0%.
